Each structure is given as a SMILES string.

`COC(=O)c1ccc(-c2nc(NCc3ccc(OC)c(Cl)c3)c3c(n2)sc2ccccc23)cc1` [Example 3, methyl 4-[4-(3-chloro-4-methoxybenzylamino)-[1]-benzothieno-[2,3-d]-pyrimidin-2-yl]benzoate] came in with a melting point of 203 to 204 °C.

`COc1ccc(CNc2nc(CCC(=O)O)nc3sc4ccccc4c23)cc1Cl` [Example 2, 3-[4-(3-chloro-4-methoxybenzylamino)-benzothieno-[2,3-d]-pyrimidin-2-yl]propionic acid] showed a melting point of 218 °C.

The values above are taken from patent publication US20040058940A1, “Pharmaceutical formulation comprising thienopyrimidines and antithrombotics, calcium antagonists, prostaglandins or prostaglandin derivatives (2)” (priority 2000, published 2004).
